Structures are written as SMILES.

We go through 69 molecules from ChEMBL document CHEMBL3507680, “University of Dundee, Gates Library screen for HepG2 cell viability”.

A short description of this data set: Human HepG2 cell viability assay in 384 well format. The class given is toxicity, cell-based. Set-up: dose 125 nL, time 70.5 hour; cytotoxicity at 70.5 h: concentration not given beside the values. The note with it: HepG2 cells, read-out: Inhibition.

Consider `O=C(O)C(c1ccc(O)cc1)N1CCC(N2CCSCC2)CC1` (centres undefined), for which the cytotoxicity at 70.5 h was -0.773%.
`CN(C)CCN(C)C(=O)c1cn(CC2CCCCC2)nn1`: the cytotoxicity at 70.5 h is -18.4%.
For `Cc1cccc2cc(CN3CCCN4CCC[C@H]4C3)c(=O)[nH]c12` the value was 1.79%; for `CCCc1noc(-c2cn(CC(=O)N(CC)CC)nn2)n1`, -4.55%; for `NCc1cn(CC2CCCN(C(=O)CC3=CCCCC3)C2)nn1` (centres undefined), -11.9%.
As for `CCc1cccc(CC)c1NC(=O)c1ccccc1N(C)S(C)(=O)=O`, the cytotoxicity at 70.5 h was -8.14%.
The figure for `O=C(CO)N1CCCC2(CCC(=O)N(CC3CC3)C2)C1` (centres undefined) is -11%.
For `CC(C)(CNC1CCCN(Cc2ccccc2F)C1)CN1CCOCC1` (centres undefined) the value was -15.7%; for `COCc1nc(N2CCC(CCO)CC2)c2cnn(C)c2n1`, 2.73%; for `O=C(c1ccon1)N1CCc2ncnc(NCc3ccccn3)c2CC1`, 0.424%.
On to `Cc1cc(-c2nn(C)c(Cl)c2CN2CCOC(C(=O)O)C2)no1` (centres undefined), for which the cytotoxicity at 70.5 h turned out to be 13.8%.
Turning to `N#Cc1ccccc1CN1CCC(c2nccn2CC(N)=O)CC1`, the cytotoxicity at 70.5 h was -4.95%.
For `COc1ccc2c(=O)n(CC3CC3)ccc2c1OC` the value was 2.47%; for `CCOCc1nc2c(c(NCCNC(C)=O)n1)CCN(C(C)=O)CC2`, 16.6%; for `CCCN1CCN(C(=O)c2cnccc2C)[C@H]2CS(=O)(=O)C[C@H]21`, -3.96%.
For the molecule `O=C(CN1CCCC1c1nc(-c2ccccc2)no1)N1CCOCC1` (centres undefined), the cytotoxicity at 70.5 h was -4.9%.
For `O=C(O)CN1CCc2onc(C(c3ccccc3)c3ccccc3)c2C1`, the cytotoxicity at 70.5 h was -3.48%.
With `COc1cc2c(cc1OC)CN(C(C(=O)O)c1c(C)nn(C)c1C)CC2` (centres undefined), the cytotoxicity at 70.5 h is -6.71%.
In the case of `COc1cc(C(=O)O)cc(I)c1OCC(=O)NCCc1ccccc1`, the cytotoxicity at 70.5 h was -4.57%.
For `O=C(COCc1ccccc1)N1CCN(c2ccc(Cl)cn2)CC1` the value was -4.29%; for `O=C(CCC1CCCC1)N1C[C@H]2CC[C@@H]1CN(Cc1ccncc1)C2`, -11.9%.
Take `O=c1[nH]c(NCc2cccc(-c3ccccc3)c2)nc2c1CCNC2`: the cytotoxicity at 70.5 h was -21%.
The figure for `CC(C)(C)CN1CCCC2(CCN(C(=O)c3cn[nH]c3)C2)C1` (centres undefined) is -9.2%; for `Cc1ccc2c(C)c(C(=O)NCc3csc(N)n3)oc2c1` it is -13%; for `Cc1ccc2nc(C)c(C)c(C(=O)NCCCn3ccnn3)c2c1` it is 3.79%.
`CCn1cnnc1CCNc1nc(C)cc(C)c1C#N`: the cytotoxicity at 70.5 h stood at 27.1%.
With `CS(=O)(=O)N1CCc2[nH]cnc2C12CCN(C(=O)c1ccccc1)CC2`, the cytotoxicity at 70.5 h was -1.52%.
With `Cc1csc2c(N3CCC(NCCCc4ccncc4)CC3)ncnc12`, the cytotoxicity at 70.5 h is -7.45%.
In the case of `O=C1[C@H]2CC[C@H](CN(C3CSCCSC3)C2)N1Cc1cscn1`, the cytotoxicity at 70.5 h is -7.49%.
On to `O=C(c1cncc(N2CCC(O)(CO)CC2)n1)N1CCCC1`, for which the cytotoxicity at 70.5 h was -9.52%.
As for `Cc1cc(NCc2cccnc2)n2nc(C)cc2n1`, the cytotoxicity at 70.5 h is -8.91%.
Take `CCc1nc(C)c(C(=O)N2C[C@H]3CC[C@@H]2CN(S(=O)(=O)N(C)C)C3)s1`: the cytotoxicity at 70.5 h is 8.88%.
Consider `N#Cc1ccc(CN2CCN(C(=O)C3CCC3)[C@@H]3CS(=O)(=O)C[C@@H]32)cc1`, for which the cytotoxicity at 70.5 h is -6.79%.
Take `CC(C)(CO)NC(=O)C1CCC(=O)N(Cc2ccc(Cl)cc2)C1` (centres undefined): the cytotoxicity at 70.5 h was -8.51%.
Consider `Cc1ccccc1Oc1ncccc1CNS(C)(=O)=O`, for which the cytotoxicity at 70.5 h worked out at 19.1%.
For `CN(C)c1ccc(CC(=O)N[C@@H]2CCNC[C@H]2O)cc1` the value was -3.58%; for `CN(C)Cc1ccc(C2CCCCN2C(=O)c2cc(C3CC3)n[nH]2)cc1` (centres undefined), -5%; for `Cc1cc(=O)[nH]c(SCC(=O)N(C)CC2Cc3ccccc3CN2C)n1` (centres undefined), -6.08%.
Turning to `CN(Cc1ccccc1)CC1(O)CCCN(CC(C)(C)C)C1=O` (centres undefined), the cytotoxicity at 70.5 h is -3.59%.
For `Cn1nc(C(=O)N2CCCCC2c2nc3cc(F)ccc3[nH]2)ccc1=O` (centres undefined) the value was 6.51%.
The figure for `CCCc1nc(C(=O)N2CCCn3nc(CCC(=O)O)cc3C2)cs1` is -9.99%; for `CSc1ccc(S(=O)(=O)N2CCCCC2CCNC(C)=O)cc1` (centres undefined) it is -9.19%.
For `CSc1ccccc1C(C(=O)O)N1CCN(Cc2ccccn2)CC1` (centres undefined), the cytotoxicity at 70.5 h was 17%.
`Cc1nc(CN2CCCC(CCc3ccc(F)cc3F)C2)c[nH]1` (centres undefined): the cytotoxicity at 70.5 h was -1.86%.
Take `c1ccc(-c2noc3c2CN(CC2CC2)CC3)cc1`: the cytotoxicity at 70.5 h is -3.25%.
For `O=C(O)[C@@H]1CN(C(=O)c2cc(C3CC3)n[nH]2)C[C@H]1c1cccc(F)c1` the value was -9.94%.
The figure for `Cn1ccnc1CN1C[C@@H](CN2CCC(CO)CC2)[C@@H](CO)C1` is -7.99%.
As for `CN1CCCC2(CCN(C(=O)CCn3cncn3)C2)C1=O` (centres undefined), the cytotoxicity at 70.5 h is -10.5%.
With `Cc1nc[nH]c1CN1C[C@@H]2CC[C@H](C1)N(C(=O)CCNS(C)(=O)=O)C2`, the cytotoxicity at 70.5 h is -1.67%.
For `CN1CCCC1c1ccc(C(=O)N2CCc3ccccc3C2)s1` (centres undefined) the value was 17.6%; for `COc1cccc(OCc2cc(C(=O)NC[C@H]3CCCN3)n[nH]2)c1`, -4.69%; for `C[C@@H]1CN(C(=O)c2cnc(C3CC3)nc2)CC[C@@]1(O)C1CCOCC1`, -8.12%.
The figure for `CC(C)n1ccnc1C1CCN(Cc2ccc(Cl)c(F)c2)CC1` is -5.05%; for `COCc1nc(CN2CCC3(CCCO3)CCC2=O)no1` (centres undefined) it is -7.37%; for `Cc1ccc(C#N)c(N2CCC(c3nccn3Cc3cscn3)CC2)n1` it is -8.13%.
For `CCOCCC(=O)N1CCCC(c2ncc[nH]2)C1` (centres undefined) the value was -0.67%; for `O=C(CCC1CCN(Cc2ncc[nH]2)CC1)Nc1ccccc1Cl`, -10.7%; for `COc1cccc2c1OCC(C(=O)N1CCC(N3CCOC3=O)CC1)C2` (centres undefined), -8.52%.
Consider `CC(=O)N1CCCC1c1ccc(C(=O)N2CCOCC2)s1` (centres undefined), for which the cytotoxicity at 70.5 h amounted to 14.5%.
As for `Cc1ccc(C)c(C(C(=O)O)N2CCCN(Cc3ccccn3)CC2)c1` (centres undefined), the cytotoxicity at 70.5 h is -8.23%.
For `O=C(c1cccnc1O)N(Cc1ccsc1)CC1CCCO1` (centres undefined) the value was 8.65%; for `CCC(=O)N1CCC(c2nnc(Cn3cccn3)n2C2CC2)CC1`, -6.95%; for `Cc1nc(CCNC(=O)C2CC(=O)N(C(C)(C)C)C2)sc1C` (centres undefined), -8.11%.
Regarding `Cc1[nH]ccc1C(=O)N1CCC(c2nnc(Cn3cccn3)n2C)CC1`, the cytotoxicity at 70.5 h is -0.908%.
For `CCc1nnc(CN(C)c2nc(C3CCCC3)nc3c2cnn3C)o1` the value was -6.42%; for `c1cc(-c2cnccn2)cc(-c2ccn(CCN3CCCC3)n2)c1`, 12.2%; for `Cc1ccc(NC(=O)N2C[C@H]3CC[C@@H]2CN(Cc2cscn2)C3)cc1`, -6.47%.
As for `O=C(CCc1ccccc1)C1CCCN(C(=O)c2ncc(F)cc2F)C1` (centres undefined), the cytotoxicity at 70.5 h is -3.9%.
Take `CNCCc1nc2cc(Cl)ccc2[nH]1`: the cytotoxicity at 70.5 h was found to be 16.5%.
